# Marks after values point to notes of the source that are not given here.
# What was measured:
# [1] = test system: HMEC-1 human vascular endothelial cells
Structure (SMILES),Concentrations with no hemolytic properties (blood),Maximum Non-Hemolytic Concentration (blood),Maximum Non-Cytotoxic Concentration HMEC-1 [1],Maximum Non-Cytotoxic Concentration L929 (L929 mouse fibroblasts),Concentrations with hemolytic properties (blood)
O=C(O)CCC(=O)OCCC(F)(F)C(F)(F)C(F)(F)C(F)(F)C(F)(F)C(F)(F)C(F)(F)C(F)(F)F [2j3k],≤ 1%,1%,0.5%,0.50* %,–
O=C(O)CCC(=O)OCCC(F)(F)C(F)(F)C(F)(F)C(F)(F)C(F)(F)C(F)(F)C(F)(F)C(F)(F)F [2j2j3h],–,>2.00%,1%,0.25** %,–
O=C(O)CSCCC(F)(F)C(F)(F)C(F)(F)C(F)(F)C(F)(F)C(F)(F)C(F)(F)C(F)(F)F [2a3a],–,0.05%,1%,0.5%,–
O=C(O)CCCCCSCCC(F)(F)C(F)(F)C(F)(F)C(F)(F)C(F)(F)C(F)(F)C(F)(F)C(F)(F)F [2c3k],–,0.05%,1%,0.25%,–
O=C(O)CCCCCSCCC(F)(F)C(F)(F)C(F)(F)C(F)(F)C(F)(F)C(F)(F)C(F)(F)C(F)(F)F [2c3c],–,0.25%,0.5%,0.25%,–
O=C(O)CC(F)(F)C(F)(F)C(F)(F)C(F)(F)C(F)(F)C(F)(F)F [2p3c],–,0.25%,0.1%,0.1%,–
O=C(O)CCCCCSCCC(F)(F)C(F)(F)C(F)(F)C(F)(F)C(F)(F)C(F)(F)C(F)(F)C(F)(F)F [2c3a],–,0.02%,0.5%,0.5%,–
O=C(O)CCC(=O)OCCC(F)(F)C(F)(F)C(F)(F)C(F)(F)C(F)(F)C(F)(F)F [2i3l],–,0.05%,0.01** %,0.01** %,–
O=C(O)CCCC(=O)OCCC(F)(F)C(F)(F)C(F)(F)C(F)(F)C(F)(F)C(F)(F)F [2k3c],–,0.05%,0.10* %,0.10* %,–
O=C(O)CCCC(=O)OCCC(F)(F)C(F)(F)C(F)(F)C(F)(F)C(F)(F)C(F)(F)F [2k3l],–,0.05%,<0.25%,<0.25* %,–
O=C(O)CCCCCSCCC(F)(F)C(F)(F)C(F)(F)C(F)(F)C(F)(F)C(F)(F)C(F)(F)C(F)(F)F [2c3l],–,0.02%,0.5%,0.25* %,–
O=C(O)CCC(=O)OCCC(F)(F)C(F)(F)C(F)(F)C(F)(F)C(F)(F)C(F)(F)F [2i3k],–,0.1%,0.1%,0.1%,–
O=C(O)CC(F)(F)C(F)(F)C(F)(F)C(F)(F)C(F)(F)C(F)(F)F [2p3e],–,0.25%,0.25%,0.1%,–
O=C(O)CCC(=O)OCCC(F)(F)C(F)(F)C(F)(F)C(F)(F)C(F)(F)C(F)(F)F [2i2i3h],–,0.05%,0.1%,0.1%,–
O=C(O)CCC(=O)OCCC(F)(F)C(F)(F)C(F)(F)C(F)(F)C(F)(F)C(F)(F)F [2i3e],–,0.05%,0.10** %,0.20** %,–
O=C(O)CCCC(=O)OCCC(F)(F)C(F)(F)C(F)(F)C(F)(F)C(F)(F)C(F)(F)C(F)(F)C(F)(F)F [2l3l],–,>2.00%,>1.00%,>1.00%,–
O=C(O)CCCCCSCCC(F)(F)C(F)(F)C(F)(F)C(F)(F)C(F)(F)C(F)(F)C(F)(F)C(F)(F)F [2c3f],–,0.01%,1%,<0.25%,above 0.05%
O=C(O)CCCC(=O)OCCC(F)(F)C(F)(F)C(F)(F)C(F)(F)C(F)(F)C(F)(F)C(F)(F)C(F)(F)F [2l3c],–,>2.00%,0.5%,0.5%,–
O=C(O)CSCCC(F)(F)C(F)(F)C(F)(F)C(F)(F)C(F)(F)C(F)(F)C(F)(F)C(F)(F)F [2a3f],–,>2.00%,0.2%,0.2%,–
O=C(O)CCC(=O)OCCC(F)(F)C(F)(F)C(F)(F)C(F)(F)C(F)(F)C(F)(F)F [2i3c],–,0.02%,0.10** %,0.10** %,–
O=C(O)CSCCC(F)(F)C(F)(F)C(F)(F)C(F)(F)C(F)(F)C(F)(F)C(F)(F)C(F)(F)F [2a3e],–,0.25%,0.2%,0.2%,–
O=C(O)CCCC(=O)OCCC(F)(F)C(F)(F)C(F)(F)C(F)(F)C(F)(F)C(F)(F)F [2k3k],–,0.05%,0.10** %,0.20** %,–
O=C(O)CCC(=O)OCCC(F)(F)C(F)(F)C(F)(F)C(F)(F)C(F)(F)C(F)(F)C(F)(F)C(F)(F)F [2j3a],–,>2.00%,0.2%,0.2%,–
O=C(O)C(CCC(F)(F)C(F)(F)C(F)(F)C(F)(F)C(F)(F)C(F)(F)C(F)(F)C(F)(F)F)C(=O)O [2s3e],–,0.1%,0.25%,0.25%,–
O=C(O)CSCCC(F)(F)C(F)(F)C(F)(F)C(F)(F)C(F)(F)C(F)(F)C(F)(F)C(F)(F)F [2a3c],–,0.2%,0.2%,0.2%,–
O=C(O)CCCC(=O)OCCC(F)(F)C(F)(F)C(F)(F)C(F)(F)C(F)(F)C(F)(F)F [2k3e],–,0.05%,0.01* %,0.10* %,–
O=C(O)CCC(=O)OCCC(F)(F)C(F)(F)C(F)(F)C(F)(F)C(F)(F)C(F)(F)C(F)(F)C(F)(F)F [2j3l],–,>2.00%,1%,0.10** %,–
O=C(O)CCCCCSCCC(F)(F)C(F)(F)C(F)(F)C(F)(F)C(F)(F)C(F)(F)C(F)(F)C(F)(F)F [2c3e],–,0.02%,1%,0.5%,–
